The values that follow come from patent US9457041B2, “Controlled release nanoparticles and methods of use” (NDSU Research Foundation, priority 2014, dated 2016).

One experiment deals with MIAPaCa-2 cells. Nature of the experiment: Alamar Blue assay with a monolayer cell culture. The experiment is classed as cell-based. The following applies: Homo sapiens, MIA PaCa-2, MIAPaCa-2 monolayer, 10 μM gemcitabine or equivalent encapsulated, 72 hours. The method, then: (§1) Pancreatic-cancer cell lines PANC-1 and MIAPaCa-2 were obtained from American Type Culture Collection (Manassas, Va.). PANC-1 cells were cultured in RPMI media (without phenol red) that were supplemented with 2% antibiotics (penicillin, streptomycin) and 10% v/v fetal bovine serum. The MIAPaCa-2 cells were cultured in DMEM media that were supplemented with 2% horse serum and 2% antibiotics. All cell lines were grown at 37° C. in a humidified atmosphere containing 5% CO2.
(§2) Cytotoxicity of the encapsulated gemcitabine was measured by treating the PANC-1 and MIAPaCa-2 cells with nanovesicles. The cells were incubated (1,000 per well) in a 96-well plate after trypsinizing the flask and making a cell suspension. RPMI media (100 μL) were added to each well. Cells were allowed to grow for one doubling time. The plate was divided into three groups: control, gemcitabine treated and gemcitabine-encapsulated nanovesicles treated. Six replicates were recorded for each sample. […] The treatment was carried out for 3 days, and cell toxicity was recorded after 72 hours with the Alamar Blue assay by following the supplier's (Life Technologies) protocol. Alamar Blue solution (10 μL) was added to all the wells and incubated for 2 hours, and the absorbance was recorded at 585 nm for cytotoxicity calculation (FIG. 15).
(The colour change of resazurin is a common sign of viable cells or microbes.)

For another experiment, the system named is PANC-1 cells. Nature of the experiment: Alamar Blue assay with a monolayer cell culture. The experiment is classed as cell-based. The following applies: Homo sapiens, PANC-1 monolayer, 10 μM gemcitabine or equivalent encapsulated, 72 hours. The method, then: as §1, §2
The target of the next experiment is recombinant human MMP-9 (Homo sapiens, UniProt P14780). Nature of the experiment: CD spectroscopy of triple helicity of nanovesicle-incorporated lipopeptide. The experiment is classed as biochemical. The text has this: The lipopeptide LP [CH3(CH2)16CONH-[…](GPO)4GG-COOH] was synthesized by employing microwave assisted solid phase peptide synthesizer (Liberty, CEM Corporation, Matthews, S.C.) by following the protocol previously established in our laboratory (Pompella et al., Biochem pharm 2003, 66 (8), 1499-1503). The lipopeptide was purified by reverse phase HPLC (Shimadzu Scientific Instruments) using a diphenyl semi-preparatory column (Grace Vydac, 300 Å pore diameter silica, 5 μm particle size, 10 mm×250 mm) as the stationary phase. A linear gradient (0-70%) of acetonitrile (with 0.1% trifluoroacetic acid) in water (with 0.1% trifluoroacetic acid) was used at a flow rate of 8 mL/min over 60 min. The chromatogram was recorded at 235 nm using a UV detector. After freeze drying the eluents, the peptide was characterized employing MALDI-TOF mass spectrometry with an AB 4800 MALDI TOF/TOF mass analyzer. An observed mass of 2332.3 Da in MALDI spectra confirmed the LP (calculated mass: 2332.2 Da). The collagen mimetic triple helical structure of the lipopeptide was assessed by CD spectrometry employing a Jasco J-815 CD spectrometer with a quartz cuvette of 1 mm path length. The positive peak at 222 nm and the negative peak at 198 nm confirmed the triple helical structure of collagen mimetic peptide.20 For the CD spectroscopic studies, 32 accumulations were recorded for each spectra.
Chain of recombinant human MMP-9 (P14780 94-707): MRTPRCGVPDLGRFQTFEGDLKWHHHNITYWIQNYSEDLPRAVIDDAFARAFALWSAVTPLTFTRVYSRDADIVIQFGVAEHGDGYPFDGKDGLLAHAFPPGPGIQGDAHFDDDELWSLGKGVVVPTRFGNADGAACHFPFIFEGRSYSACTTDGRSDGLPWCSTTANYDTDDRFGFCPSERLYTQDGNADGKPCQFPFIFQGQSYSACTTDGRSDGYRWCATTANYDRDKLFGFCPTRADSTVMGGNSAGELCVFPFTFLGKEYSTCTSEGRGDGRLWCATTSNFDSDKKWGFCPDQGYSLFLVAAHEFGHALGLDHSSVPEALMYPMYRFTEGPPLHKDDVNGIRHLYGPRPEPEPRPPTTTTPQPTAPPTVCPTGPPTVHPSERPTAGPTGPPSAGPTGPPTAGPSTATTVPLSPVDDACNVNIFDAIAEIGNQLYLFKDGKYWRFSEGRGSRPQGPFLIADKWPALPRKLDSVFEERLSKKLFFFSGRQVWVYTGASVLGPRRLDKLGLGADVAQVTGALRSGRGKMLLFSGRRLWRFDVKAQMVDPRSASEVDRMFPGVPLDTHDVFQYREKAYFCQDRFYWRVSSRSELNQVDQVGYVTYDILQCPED

With `Nc1ccn([C@@H]2O[C@H](CO)[C@@H](O)C2(F)F)c(=O)n1` [gemcitabine], the values for the viability at 10 µM with MIAPaCa-2 cells and in the experiment with PANC-1 cells were 45 to 50% and 30 to 35%, respectively.

As for “CH3(CH2)16CONH-GPQGIAGQR(GPO)4GG-COOH [LP]”, the “triple helicity of LP (CD)” value at recombinant human MMP-9 (2 μM recombinant human MMP-9, 60 minutes) was “considerably reduced”. In addition, at recombinant human MMP-9 (GSH (50 μM), 1 hour), the “triple helicity of nanovesicle-incorporated LP (CD)” value was “unchanged”.

One may read the viability as the share of living cells, or the viability signal relative to a control.
